Results from patent US11407736B2 (priority 2019, dated 2022).
Where two headings read alike, the source gives them in different places.

Tests used:
U937 cells = experiment: U937 cell necroptosis assay (TNFa + zVAD, CellTiter-Glo); assay type: cell-based, human; settings: Homo sapiens
Description: (§1) In this example, U937 and L929 cells were exposed to compounds of the present disclosure and a cell necroptosis assay was conducted to evaluate the compounds' activity against human RIP1 and murine RIP1.
(§2) U937 and L929 cells were obtained from the American Type Culture Collection (Manassa, Va., USA). Both cells were maintained in logarithmic growth phase in complete RPMI 1640 media (Sigma, ST Louis, Mo., USA) supplemented with 10% fetal bovine serum (Sigma, ST Louis, Mo., USA) at 37° C. with 5% CO2. For necroptosis assay, L929 cells were plated for 18 h in 100 μL/well medium at 10K cells/well in Costar 96-well black clear-bottom plates (Fisher Scientific, Hampton, N.H., USA); U937 cells were plated on the day of the assay in 50 4/well medium containing 60 uM zVAD-fink (Lonza, Basel, Switzerland) at 50K cells/well. Medium from L929 cells were removed from the 96-well plates and replaced with 50 μL/well new medium containing 40 uM zVAD-fink. Each compound of the present disclosure evaluated in this example was serially diluted in DMSO from 2.5 mM in 4-fold dilutions, and then diluted 1:125 in complete medium. 50 μL/well 2× of the compound was then added to the cells in the plates. The cells were pre-incubated with the compound for 1 hour at 37° C. with 5% CO2 and before addition of 10 μL/well 1 1×TNFa (Peprotech, Rocky Hill, N.J., USA) to give a final concentration of 2 ng/mL for TNFa. The relative amount of necroptosis cells was determined by luminescent using a Wallac Victor2 Luminometer (PerkinElmer, Waltham, Mass., USA) and a CellTiter-Glo® Luminescent Cell Viability Reagent Assay (Promega, Madison, Wis., USA) added per manufacturer instructions after 18 hours of TNFa stimulation at 37° C. with 5% CO2. This example establishes that embodiments of the compounds described herein have unexpectedly potent activity against human RIP1 and murine RIP1, which allows their assessment in in vivo mouse models of disease.

RIPK1 = RIPK1 (Homo sapiens (Human), UniProt Q13546); experiment: RIPK1 ADP-Glo biochemical kinase assay
Sequence of RIPK1 (Q13546 whole entry, species assumed): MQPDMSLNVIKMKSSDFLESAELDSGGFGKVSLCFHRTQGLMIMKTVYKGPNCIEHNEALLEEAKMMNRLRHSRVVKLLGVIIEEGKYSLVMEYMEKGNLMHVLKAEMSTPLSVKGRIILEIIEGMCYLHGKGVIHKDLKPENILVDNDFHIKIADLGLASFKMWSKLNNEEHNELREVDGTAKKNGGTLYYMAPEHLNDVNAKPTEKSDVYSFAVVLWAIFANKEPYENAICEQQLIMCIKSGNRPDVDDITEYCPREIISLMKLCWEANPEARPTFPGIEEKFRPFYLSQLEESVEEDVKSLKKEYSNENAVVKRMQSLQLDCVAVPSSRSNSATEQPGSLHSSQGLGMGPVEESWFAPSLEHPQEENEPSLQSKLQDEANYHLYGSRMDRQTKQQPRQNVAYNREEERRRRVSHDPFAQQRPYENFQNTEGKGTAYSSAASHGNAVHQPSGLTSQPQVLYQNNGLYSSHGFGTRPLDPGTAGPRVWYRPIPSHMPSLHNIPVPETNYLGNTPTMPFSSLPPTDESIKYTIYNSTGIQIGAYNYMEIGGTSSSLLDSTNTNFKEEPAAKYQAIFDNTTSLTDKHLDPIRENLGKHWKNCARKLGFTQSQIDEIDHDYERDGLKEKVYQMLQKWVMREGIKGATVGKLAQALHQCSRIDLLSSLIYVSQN
Description: The final reaction volume was 5.0ul.
Adding 5 μl of ADP-Glo™ terminated the reaction.

L929 cells = experiment: L929 cell necroptosis assay (TNFa + zVAD, CellTiter-Glo); assay type: cell-based, murine; settings: Mus musculus, L929, L929 cells, TNFa + zVAD; read-out: L929-CTG-recovery, L929, TNFa + zVAD (IC50)
Description: as §1
as §2, with “The cells were pre-incubated with the compound for 1 hour at 37° C. with 5% CO2 and before addition of 10 μL/well 1 1×TNFa (Peprotech, Rocky Hill, N.J., USA) to give a final concentration of 2 ng/mL for TNFa.” left out, “CO2.” for “CO2. This example establishes that embodiments of the compounds described herein have unexpectedly potent activity against human RIP1 and murine RIP1, which allows their assessment in in vivo mouse models of disease.”

[1] = U-937, U937 cells, TNFa + zVAD, read-out: U937 Zvad TNF CTG Recovery, U937, TNFa + zVAD (IC50)
[2] = read-out: RIPK1 ADP-Glo Kinase (IC50)
[3] = U-937, read-out: U937 Zvad TNF CTG Recovery, U937, TNFa + zVAD (IC50), U937 cells, TNFa + zVAD

What does the source list for `CN1C(=O)[C@@H](NC(=O)c2n[nH]c(Cc3ccccc3)n2)COc2ccc(CCC(=O)Nc3ccc4[nH]ncc4c3)cc21` [Compound I-2, (S)—N-(7-(3-((1H-indazol-5-yl)amino)-3-oxopropyl)-5-methyl-4-oxo-2,3,4,5-tetrahydrobenzo[b][1,4]oxazepin-3-yl)-5-benzyl-1H-1,2,4-triazole-3-carboxamide]?
IC50 (U937 cells; [1]): 31.9 nM; IC50 (RIPK1; [2]): 15.7 nM

What does the source list for `COc1cc2ncnc(NC(=O)CCc3ccc4c(c3)N(C)C(=O)[C@@H](NC(=O)c3n[nH]c(Cc5ccccc5)n3)CO4)c2cc1OC` [Compound I-4, (S)-5-benzyl-N-(7-(3-((6,7-dimethoxyquinazolin-4-yl)amino)-3-oxopropyl)-5-methyl-4-oxo-2,3,4,5-tetrahydrobenzo[b][1,4]oxazepin-3-yl)-1H-1,2,4-triazole-3-carboxamide]?
IC50 (U937 cells; [1]): 29.3 nM; IC50 (RIPK1; [2]): 56.8 nM

What does the source list for `CN1C(=O)[C@@H](NC(=O)c2n[nH]c(Cc3ccccc3)n2)COc2ccc(CCC(=O)O)cc21` [Compound I-9, (S)-3-(3-(5-benzyl-1H-1,2,4-triazole-3-carboxamido)-5-methyl-4-oxo-2,3,4,5-tetrahydrobenzo[b][1,4]oxazepin-7-yl)propanoic acid]?
IC50 (U937 cells; [1]): 362 nM; IC50 (RIPK1; [2]): 189 nM

Which IC50 (U937 cells; [1]) does the source give for `CN1C(=O)[C@@H](NC(=O)c2n[nH]c(Cc3ccccc3)n2)COc2ccc(CCC(=O)NC3CC3)cc21` [Compound I-13, (S)-5-benzyl-N-(7-(3-(cyclopropylamino)-3-oxopropyl)-5-methyl-4-oxo-2,3,4,5-tetrahydrobenzo[b][1,4]oxazepin-3-yl)-1H-1,2,4-triazole-3-carboxamide] here?
The IC50 was 13.8 nM.

What about the IC50 (RIPK1; [2]) of the same compound?
The IC50 was 53.9 nM.

Which IC50 (U937 cells; [1]) does the source give for `CN1C(=O)[C@@H](NC(=O)c2n[nH]c(Cc3ccc(F)cc3F)n2)COc2ccc(CCC(=O)NC3CC3)cc21` [Compound I-27, (S)—N-(7-(3-(cyclopropylamino)-3-oxopropyl)-5-methyl-4-oxo-2,3,4,5-tetrahydrobenzo[b][1,4]oxazepin-3-yl)-5-(2,4-difluorobenzyl)-1H-1,2,4-triazole-3-carboxamide] here?
The IC50 was 69.7 nM.

And the IC50 (RIPK1; [2])?
The IC50 was 158 nM.

Which IC50 (U937 cells; [1]) does the source give for `CN1C(=O)[C@@H](NC(=O)c2n[nH]c(Cc3ccccc3)n2)COc2ccc(CCC(N)=O)cc21` [Compound I-31, (S)—N-(7-(3-amino-3-oxopropyl)-5-methyl-4-oxo-2,3,4,5-tetrahydrobenzo[b][1,4]oxazepin-3-yl)-5-benzyl-1H-1,2,4-triazole-3-carboxamide] here?
Its IC50 is 33.7 nM.

And the IC50 (RIPK1; [2])?
Its IC50 is 33.4 nM.

Which IC50 (RIPK1; [2]) does the source give for `CN1C(=O)[C@@H](NC(=O)c2n[nH]c(Cc3ccccc3)n2)COc2ccc(C#CC3(O)CCC3)cc21` [Compound I-51, (S)-5-benzyl-N-(7-((1-hydroxycyclobutyl)ethynyl)-5-methyl-4-oxo-2,3,4,5-tetrahydrobenzo[b][1,4]oxazepin-3-yl)-1H-1,2,4-triazole-3-carboxamide] here?
The IC50 was 31.7 nM.

What does the source list for `CN1C(=O)[C@@H](NC(=O)c2ccc(Oc3ccccc3)cn2)COc2ccc(C#CC(C)(C)O)cc21` [Compound I-121, (S)—N-(7-(3-hydroxy-3-methylbut-1-yn-1-yl)-5-methyl-4-oxo-2,3,4,5-tetrahydrobenzo[b][1,4]oxazepin-3-yl)-5-phenoxypicolinamide]?
IC50 (U937 cells; [1]): 30300 nM; IC50 (RIPK1; [2]): 12400 nM

With `CN1C(=O)[C@@H](NC(=O)c2ccc(Oc3ccc(F)cc3)cn2)COc2ccc(C#CC(C)(C)O)cc21` [Compound I-122, (S)-5-(4-fluorophenoxy)-N-(7-(3-hydroxy-3-methylbut-1-yn-1-yl)-5-methyl-4-oxo-2,3,4,5-tetrahydrobenzo[b][1,4]oxazepin-3-yl)picolinamide] as the compound, how does the IC50 (U937 cells; [1]) read?
Its IC50 is 40400 nM.

What about the IC50 (RIPK1; [2]) of the same compound?
Its IC50 is 12300 nM.

How did the IC50 (U937 cells; [1]) turn out when `CN1C(=O)[C@@H](NC(=O)c2cc(Oc3ccc(F)cc3)ccn2)COc2ccc(C#CC3(O)CCNCC3)cc21` [Compound I-133, (S)-4-(4-fluorophenoxy)-N-(7-((4-hydroxypiperidin-4-yl)ethynyl)-5-methyl-4-oxo-2,3,4,5-tetrahydrobenzo[b][1,4]oxazepin-3-yl)picolinamide] was run?
Its IC50 is 492 nM.

And the IC50 (RIPK1; [2])?
The IC50 was 173 nM.

Which results are given for `CN1C(=O)[C@@H](NC(=O)c2cc(Oc3ccccc3)ccn2)COc2ccc(CN3CC4(CCOCC4)C3)cc21` [Compound I-150, (S)—N-(7-((7-oxa-2-azaspiro[3.5]nonan-2-yl)methyl)-5-methyl-4-oxo-2,3,4,5-tetrahydrobenzo[b][1,4]oxazepin-3-yl)-4-phenoxypicolinamide]?
IC50 (U937 cells; [1]): 83.1 nM; IC50 (RIPK1): 44.7 nM

What does the source list for `CN1C(=O)[C@@H](NC(=O)c2cc(Oc3ccccc3)ccn2)COc2ccc(C#CC(=O)O)cc21` [Compound I-161, (S)-3-(5-methyl-4-oxo-3-(4-phenoxypicolinamido)-2,3,4,5-tetrahydrobenzo[b][1,4]oxazepin-7-yl)propiolic acid]?
IC50 (U937 cells; [1]): 45.5 nM; IC50 (RIPK1; [2]): 36.2 nM

Which results are given for `COc1ccnc(C(=O)N[C@H]2COc3ccc(C#CC4(O)COC4)cc3N(C)C2=O)c1` [Compound I-162, (S)—N-(7-((3-hydroxyoxetan-3-yl)ethynyl)-5-methyl-4-oxo-2,3,4,5-tetrahydrobenzo[b][1,4]oxazepin-3-yl)-4-methoxypicolinamide]?
IC50 (U937 cells; [1]): 1660 nM; IC50 (RIPK1; [2]): 54.4 nM

`COc1ccnc(C(=O)N[C@H]2COc3ccc(C#CC(C)(C)O)cc3N(C)C2=O)c1` [Compound I-163, (S)—N-(7-(3-hydroxy-3-methylbut-1-yn-1-yl)-5-methyl-4-oxo-2,3,4,5-tetrahydrobenzo[b][1,4]oxazepin-3-yl)-4-methoxypicolinamide] was tested. Which IC50 (U937 cells; [3]) did it give?
The IC50 was 3320 nM.

What about the IC50 (RIPK1; [2]) of the same compound?
The IC50 was 509 nM.

With `CN1C(=O)[C@@H](NC(=O)c2cc(Oc3ccccc3)ccn2)COc2ccc(C#CC3(O)CS(=O)(=O)C3)cc21` [Compound I-209, (S)—N-(7-((3-hydroxy-1,1-dioxidothietan-3-yl)ethynyl)-5-methyl-4-oxo-2,3,4,5-tetrahydrobenzo[b][1,4]oxazepin-3-yl)-4-phenoxypicolinamide] as the compound, how does the IC50 (U937 cells; [3]) read?
The IC50 was 59.5 nM.

And the IC50 (RIPK1; [2])?
The IC50 was 106 nM.

Which results are given for `CN1C(=O)[C@@H](NC(=O)c2cc(Oc3ccccc3)ccn2)COc2ccc(C#CC(C)(C)N3CCS(=O)(=O)CC3)cc21` [Compound I-211, (S)—N-(7-(3-(1,1-Dioxidothiomorpholino)-3-methylbut-1-yn-1-yl)-5-methyl-4-oxo-2,3,4,5-tetrahydrobenzo[b][1,4]oxazepin-3-yl)-4-phenoxypicolinamide]?
IC50 (U937 cells; [1]): 1.1 nM; IC50 (L929 cells): 44.8 nM

`CN1C(=O)[C@@H](NC(=O)n2cc(Cc3ccc(F)cc3F)cn2)COc2ccc(C#CC(C)(C)CO)cc21` [Compound I-239, (S)-4-(2,4-Difluorobenzyl)-N-(7-(4-hydroxy-3,3-dimethylbut-1-yn-1-yl)-5-methyl-4-oxo-2,3,4,5-tetrahydrobenzo[b][1,4]oxazepin-3-yl)-1H-pyrazole-1-carboxamide] was tested. Which IC50 (U937 cells; [1]) did it give?
Its IC50 is 8.8 nM.

What about the IC50 (L929 cells) of the same compound?
The IC50 was 218 nM.

Which results are given for `CN1C(=O)[C@@H](NC(=O)c2cc(Oc3ccc(C#N)cc3)ccn2)COc2cc(C#CC(C)(C)O)ccc21` [II-17, (S)-4-(4-cyanophenoxy)-N-(8-(3-hydroxy-3-methylbut-1-yn-1-yl)-5-methyl-4-oxo-2,3,4,5-tetrahydrobenzo[b][1,4]oxazepin-3-yl)picolinamide]?
IC50 (U937 cells; [1]): 1490 nM; IC50 (RIPK1; [2]): 518 nM

Which results are given for `COc1cccc(-c2ccnc(C(=O)N[C@H]3COc4ccc(C#CC(C)(C)O)cc4N(C)C3=O)c2)c1` [II-23, (S)—N-(7-(3-hydroxy-3-methylbut-1-yn-1-yl)-5-methyl-4-oxo-2,3,4,5-tetrahydrobenzo[b][1,4]oxazepin-3-yl)-4-(3-methoxyphenyl)picolinamide]?
IC50 (U937 cells; [1]): 545 nM; IC50 (RIPK1; [2]): 1280 nM
